Measured values published in US8030335B2, “Use of liver X receptor agonists” (Laboratoires Fournier S.A., priority 2005, dated 2011).

How the values were obtained:
[1] = system: isolated pancreatic islets; test: Insulin content of pancreatic islets isolated from treated ZDF rats; assay type: in vivo, rat; details: 10 mg/kg oral for 3 weeks, vehicle 4.78±0.86, fa+ 27.74±6.85, mean±SEM
Description: Male ZDF fa/fa and ZDF fa+ rats were obtained from Genetic Models (Indianapolis, Ind.), at the age of 6 weeks and used in the experiments at 12 weeks of age, after 3 weeks of oral treatment with vehicle or GW3965 (10 mg/kg). Compounds were given once daily (at 17 h) via oral gavage. At the time of their use, the ZDF fa/fa rats weighed 310-350 g, whereas the age-matched ZDF fa+ rats weighed 245-285 g. ZDF fa+ and ZDF fa/fa animals had free access to diabetogenic chow (Purina 5008). Animals were housed 5 per cage in a temperature and humidity-controlled room with a 12/12-h light-dark cycle. Blood samples were taken 16 h after compound administration via the tail vein and measured on a Konelab 300 (Labsystem) clinical chemistry analyzer. Rat pancreatic islets were prepared by collagenase digestion and density gradient purification. The enzyme collagenase type XI (Sigma Chemical, St. Louis, Mo.) was used for digestion of the pancreas. After an overnight fast, animals were deeply anesthetized and killed. Then, the pancreatic duct was cannulated, and 20 ml of the digestion solution at 37° C. […] Insulin content was measured in the same islets after an overnight alcohol-acid extraction (Ethanol 75%+HCl 0.15 N). Insulin concentrations in the different media were determined by rat insulin ELISA test (Insulin Rat Elite plus, MERCODIA).

[2] = system: PDX1 mRNA; test: Real-time quantitative RT-PCR of PDX1 in isolated islets of treated ZDF rats; assay type: in vivo, rat; details: normalized to 18S rRNA, vehicle ZDF 0.17, fa+ 0.38±0.21
Description: (§1) Pancreatic and duodenal homeobox gene 1, Pdx1 (Genbank: NM_022852) and facilitated glucose transporter, member 2, Glut2 (Genbank: NM_012879) gene expression were measured by real time quantitative RT-PCR. Total RNAs from fresh isolated rat pancreatic islets were prepared using Rneasy 96 Kit according to the manufacturer's protocol (Qiagen, France), treated with Dnase I to remove contaminating DNA (Stratagene, France), and quantified using the iScript cDNA Synthesis and iQ SYBR Green Supermix kits (Biorad, france). Real-time quantitative RT-PCR was performed using the iCycler Detection System instrument and software (Bio-Rad). As the predicted size of the amplified cDNAs and the Tm values for the primers were similar, uniform amplification conditions were applied (ie. annealing at 60° C.). Specificity of amplified products was monitored by performing melting curves at the end of each amplification. Expression levels were quantified (total RNA units) by generating a six-point serial standard curve. RNA samples were normalized for comparison by determining 18S rRNA levels. In this example, the mRNA expression of PDX1 and Glut2 was determined. As previously described, PDX1 and Glut2 are markers of the regeneration of beta cells. […] PDX1 and Glut2 mRNA expression was increased in islets isolated from GW3965-compared to vehicle-treated ZDF rats. […]

[3] = system: Glut2 mRNA; test: Real-time quantitative RT-PCR of Glut2 in isolated islets of treated ZDF rats; assay type: in vivo, rat; details: normalized to 18S rRNA, vehicle ZDF 0.27, fa+ 0.40±0.22
Description: as §1

[4] = system: NOD mice; test: Insulitis development in NOD mice (pancreatic histology); assay type: in vivo, mouse
Source text: NOD (non-obese diabetes) mice is an experimental model of spontaneous resembling human Type I (insulin-dependent) diabetes, which results from the progressive islet invasion and beta cells destruction by autoreactive T cells. This spontaneous diabetes model offers a unique opportunity of studying the autoreactive T cells involved in the process of beta cell destruction and of settling preventive strategies before clinical onset of the disease. Non fasted mice were killed two days after the last administration of compounds. Pancreatic glands were excised and processed for conventional histological studies after fixation in Bouin's alcoholic solution. Five μm sections were stained with haematoxylin-eosin as described previously by Thivolet C. H. et al., 1991, Diabetologia, 34, 314-319. The evolution of insulitis was analysed in pancreas. […] State 4 was not observed in 8 weeks old mice, this state appeared at around 9-10 weeks. NOD mice of 4 weeks old have been treated for 4 weeks (5 days/7) with vehicle or GW3965 at 50 mg/kg. Pancreatic histological studies have been carried out as described above.

O=C(O)Cc1cccc(OCCCN(Cc2cccc(C(F)(F)F)c2Cl)CC(c2ccccc2)c2ccccc2)c1 [GW3965]
insulin content of islets [1]: 13.05±2.49 ng/islet
PDX1 mRNA expression [2]: 0.35±0.11
Glut2 mRNA expression [3]: 0.55±0.23
normal islets in the pancreas ([4]; NOD mice of 4 weeks old, 50 mg/kg for 4 weeks (5 days/7), control 32%): 94%
insulitis (lymphocytes infiltration) ([4]; NOD mice, 50 mg/kg for 4 weeks, pancreatic sections): appears protected against the lymphocytes infiltration
